From US20260325533A1, “CDK INHIBITOR COMPOUNDS” (ALEKSIA THERAPEUTICS, INC., priority 2023, published 2026) come the findings set out here.

Where two headings read alike, the source gives them in different places.

Common to all, as to assay type: biochemical
The target in assay [1] is CDK4/CCND3 (Homo sapiens, UniProt P11802). The experiment in a line: CDK4 homogeneous time-resolved fluorescence (HTRF) kinase assay. As to conditions: CDK4/CCND. The method, boiled down:
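HTRF kinase assay, CDK4/CCND3 1.5 nM, ATP 1 mM, ULight-4E-BP1 peptide 50 nM, 23 °C, 60 min reaction after 20 min preincubation. Eu-anti-pThr37/46 antibody detection. 11-pt half-log curves from 10 μM → IC50.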
A general note: TR-FRET usually uses a lanthanide donor and a delayed reading to cut background.

In assay [2] the target is CDK2/CCNE1 (Homo sapiens, UniProt P24941). The experiment in a line: CDK2 homogeneous time-resolved fluorescence (HTRF) kinase assay. As to conditions: CDK2/CCNE. The method, boiled down: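 IC50 derived from 11-point, half-log dilutions (usually top 10 μM) of compound, 1% DMSO. Kinase (3 nM CDK2/CCNE1) was preincubated with compound 20 min, then phosphorylated 50 nM ULight-4E-BP1 peptide at 1 mM ATP for 60 min, 23 °C. Europium-antibody TR-FRET read after EDTA stop.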

The target in assay [3] is CDK1/CCNB1 (Homo sapiens, UniProt P06493). The experiment in a line: CDK1 homogeneous time-resolved fluorescence (HTRF) kinase assay. The note with it: CDK1/CCNB. The method, boiled down:
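Kinase activity is measured as Lance signal (665 nm, or 665/615 nm ratio) from europium-labelled anti-phospho-Thr37/46 antibody binding ULight-4E-BP1 peptide. Reactions contain 0.5 nM enzyme, 1 mM ATP, 1% DMSO and run 60 min at 23 °C before EDTA quench.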

The target in assay [4] is CDK6/CCND1 (Homo sapiens, UniProt Q00534). The experiment in a line: CDK6 homogeneous time-resolved fluorescence (HTRF) kinase assay. The note with it: CDK6/CCND. The method, boiled down:
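Recombinant CDK6/CCND1 (1 nM final) was preincubated with compound for 20 min at 23 °C in HEPES buffer with MgCl2, EGTA, DTT and Tween 20. Kinase reaction then ran 60 min at 23 °C with 1 mM ATP and 50 nM ULight-4E-BP1 (Thr37/46) peptide, and was stopped with EDTA.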

[5] abbreviates: <25 nM, read-out: CDK4/CCND IC50 <25 nM.
Setting [6] is: <25 nM, read-out: CDK2/CCNE IC50 <25 nM.
The mark [7] stands for this setting: 25-250 nM marked x, read-out: CDK1/CCNB IC50 25-250 nM.
[8] abbreviates: <25 nM, read-out: CDK6/CCND IC50 <25 nM.
Where [9] appears, read: 25-250 nM marked x, read-out: CDK4/CCND IC50 25-250 nM.
The mark [10] stands for this setting: x = IC50 >250 nM, read-out: CDK4/CCND IC50 (>250 nM column).
The mark [11] stands for this setting: x = IC50 <25 nM, read-out: CDK2/CCNE IC50 (<25 nM).
Where [12] appears, read: x = IC50 25-250 nM, read-out: CDK1/CCNB IC50 (25-250 nM).
Setting [13] is: x = IC50 >250 nM, read-out: CDK6/CCND IC50 (>250 nM column).
Setting [14] is: x = IC50 >250 nM, read-out: CDK1/CCNB IC50 (>250 nM column).
Setting [15] is: x = IC50 25-250 nM, read-out: CDK2/CCNE IC50 (25-250 nM).

CDK6/CCND1, sequence (Q00534 whole entry): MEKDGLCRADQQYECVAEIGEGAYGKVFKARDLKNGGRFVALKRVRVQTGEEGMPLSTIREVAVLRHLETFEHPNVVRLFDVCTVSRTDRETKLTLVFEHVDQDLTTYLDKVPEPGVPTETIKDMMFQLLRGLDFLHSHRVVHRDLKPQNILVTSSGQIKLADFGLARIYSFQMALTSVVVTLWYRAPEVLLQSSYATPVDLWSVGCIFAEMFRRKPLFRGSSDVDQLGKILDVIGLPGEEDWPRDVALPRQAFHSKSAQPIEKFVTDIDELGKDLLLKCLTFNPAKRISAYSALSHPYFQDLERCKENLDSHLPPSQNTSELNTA
CDK6/CCND1, sequence (P24385 whole entry partner): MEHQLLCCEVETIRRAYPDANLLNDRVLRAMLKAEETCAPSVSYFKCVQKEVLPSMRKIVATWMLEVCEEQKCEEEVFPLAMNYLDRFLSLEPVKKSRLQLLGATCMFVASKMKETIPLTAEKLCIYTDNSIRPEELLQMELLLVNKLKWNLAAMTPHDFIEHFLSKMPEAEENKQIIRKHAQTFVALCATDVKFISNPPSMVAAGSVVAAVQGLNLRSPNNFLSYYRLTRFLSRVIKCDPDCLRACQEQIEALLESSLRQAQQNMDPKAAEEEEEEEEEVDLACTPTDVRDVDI
CDK1/CCNB1, sequence (P06493 whole entry): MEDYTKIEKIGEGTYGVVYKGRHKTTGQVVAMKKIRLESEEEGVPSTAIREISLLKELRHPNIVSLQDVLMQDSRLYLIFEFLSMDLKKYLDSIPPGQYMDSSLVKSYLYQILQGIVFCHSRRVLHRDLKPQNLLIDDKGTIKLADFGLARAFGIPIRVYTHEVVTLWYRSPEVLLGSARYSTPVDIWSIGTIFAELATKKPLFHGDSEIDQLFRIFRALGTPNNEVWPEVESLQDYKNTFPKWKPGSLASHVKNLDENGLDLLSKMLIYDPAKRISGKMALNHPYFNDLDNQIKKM
CDK1/CCNB1, sequence (P14635 whole entry partner): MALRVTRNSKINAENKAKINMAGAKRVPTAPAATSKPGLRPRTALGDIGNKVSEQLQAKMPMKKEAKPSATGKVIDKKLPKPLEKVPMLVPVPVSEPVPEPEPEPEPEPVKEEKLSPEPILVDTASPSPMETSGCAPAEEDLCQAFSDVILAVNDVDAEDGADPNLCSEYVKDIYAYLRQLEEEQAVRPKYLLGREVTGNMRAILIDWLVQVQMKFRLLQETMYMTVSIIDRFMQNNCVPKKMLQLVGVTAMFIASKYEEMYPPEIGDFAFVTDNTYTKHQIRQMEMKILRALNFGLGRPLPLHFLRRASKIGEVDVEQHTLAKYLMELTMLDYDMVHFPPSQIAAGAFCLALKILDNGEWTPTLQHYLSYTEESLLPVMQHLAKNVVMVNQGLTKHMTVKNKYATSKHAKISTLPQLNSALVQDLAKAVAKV
CDK4/CCND3, sequence (P11802 whole entry): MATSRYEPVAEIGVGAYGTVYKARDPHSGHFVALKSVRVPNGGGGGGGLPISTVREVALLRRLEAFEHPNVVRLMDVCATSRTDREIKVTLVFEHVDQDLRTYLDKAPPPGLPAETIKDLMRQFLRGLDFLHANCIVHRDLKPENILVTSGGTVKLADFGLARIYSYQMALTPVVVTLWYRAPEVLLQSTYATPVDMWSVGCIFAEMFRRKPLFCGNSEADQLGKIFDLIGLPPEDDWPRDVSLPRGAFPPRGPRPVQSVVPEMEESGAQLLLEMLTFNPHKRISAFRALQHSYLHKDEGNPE
CDK4/CCND3, sequence (P30281 whole entry partner): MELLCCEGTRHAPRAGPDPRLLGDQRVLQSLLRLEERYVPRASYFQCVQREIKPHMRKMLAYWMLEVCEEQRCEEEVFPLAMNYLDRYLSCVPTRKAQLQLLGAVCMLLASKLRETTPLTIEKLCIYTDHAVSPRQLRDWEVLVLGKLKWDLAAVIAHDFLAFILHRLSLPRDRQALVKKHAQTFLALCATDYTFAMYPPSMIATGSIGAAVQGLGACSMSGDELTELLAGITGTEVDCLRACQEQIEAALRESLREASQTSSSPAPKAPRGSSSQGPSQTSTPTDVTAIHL

With `C=CS(=O)(=O)N1CCC(Nc2cc3c(C4=CCCCC4)nccc3cn2)CC1` [Example 20, 5-(cyclohex-1-en-1-yl)-N-(1-(vinylsulfonyl)piperidin-4-yl)-2,6-naphthyridin-3-amine], the IC50 in assay [1] (setting [5]) is less than 25 nM; in assay [2] (setting [6]), less than 25 nM; in assay [3] (setting [7]), 25 to 250 nM; in assay [4] (setting [8]) it was less than 25 nM.

Turning to `CS(=O)(=O)N1CCC(Nc2cc3c(C4CCCCC4)nccc3cn2)CC1` [Example 21, 5-cyclohexyl-N-(1-(methylsulfonyl)piperidin-4-yl)-2,6-naphthyridin-3-amine], the IC50 in assay [1] (setting [5]) was less than 25 nM; in assay [2] (setting [6]), less than 25 nM; in assay [3] (setting [7]), 25 to 250 nM; in assay [4] (setting [8]), less than 25 nM.

In the case of `CS(=O)(=O)N1CCC(Nc2cc3c(C4CCCC4)nccc3cn2)CC1` [Example 22, 5-cyclopentyl-N-(1-(methylsulfonyl)piperidin-4-yl)-2,6-naphthyridin-3-amine], the IC50 in assay [1] (setting [5]) was less than 25 nM; in assay [2] (setting [6]), less than 25 nM; in assay [3] (<25 nM, read-out: CDK1/CCNB IC50 <25 nM) it was less than 25 nM; in assay [4] (setting [8]) it was less than 25 nM.

For the compound `CS(=O)(=O)c1ccc(Nc2cc3c(C4CCCC4)nccc3cn2)cc1` [Example 23, 5-cyclopentyl-N-(4-(methylsulfonyl)phenyl)-2,6-naphthyridin-3-amine], the IC50 in assay [1] (setting [9]) was 25 to 250 nM; in assay [2] (setting [6]), less than 25 nM; in assay [3] (setting [7]), 25 to 250 nM; in assay [4] (25-250 nM marked x, read-out: CDK6/CCND IC50 25-250 nM) it was 25 to 250 nM.

Regarding `C=CS(=O)(=O)N1CCC(Nc2cc3c(-c4cccc(C#N)c4)nccc3cn2)CC1` [Example 24, 3-(7-((1-(vinylsulfonyl)piperidin-4-yl)amino)-2,6-naphthyridin-1-yl)benzonitrile], the IC50 in assay [1] (setting [9]) was 25 to 250 nM; in assay [2] (setting [6]), less than 25 nM; in assay [3] (>250 nM marked x, read-out: CDK1/CCNB IC50 >250 nM), greater than 250 nM; in assay [4] (setting [8]) it was less than 25 nM.

With `COCC1(COC)C(=O)Nc2cc(C#Cc3nccc4cnc(Nc5ccc(S(C)(=O)=O)cc5)cc34)ccc21` [Example 360, 3,3-bis(methoxymethyl)-6-((7-((4-(methylsulfonyl)phenyl)amino)-2,6-naphthyridin-1-yl)ethynyl)indolin-2-one], the IC50 in assay [1] (setting [10]) is greater than 250 nM; in assay [2] (setting [11]), less than 25 nM; in assay [3] (setting [12]), 25 to 250 nM; in assay [4] (setting [13]), greater than 250 nM.

With `CC1(C)C(=O)Nc2nc(C#Cc3nccc4cnc(Nc5ccc(S(C)(=O)=O)cc5)cc34)ccc21` [Example 374, 3,3-dimethyl-6-((7-((4-(methylsulfonyl)phenyl)amino)-2,6-naphthyridin-1-yl)ethynyl)-1,3-dihydro-2H-pyrrolo[2,3-b]pyridin-2-one], the IC50 in assay [1] (setting [10]) is greater than 250 nM; in assay [2] (setting [11]), less than 25 nM; in assay [3] (setting [12]), 25 to 250 nM; in assay [4] (setting [13]), greater than 250 nM.

For the compound `CS(=O)(=O)c1ccc(Nc2cc3c(C#Cc4cc5c(cc4F)C4(CC4)C(=O)N5)nccc3cn2)cc1` [Example 378, 5′-fluoro-6′-((7-((4-(methylsulfonyl)phenyl)amino)-2,6-naphthyridin-1-yl)ethynyl)spiro[cyclopropane-1,3′-indolin]-2′-one], the IC50 in assay [1] (setting [10]) was greater than 250 nM; in assay [2] (setting [11]), less than 25 nM; in assay [3] (setting [14]), greater than 250 nM; in assay [4] (setting [13]) it was greater than 250 nM.

In the case of `CCC1(CC)C(=O)Nc2cc(C#Cc3nccc4cnc(Nc5ccc(S(C)(=O)=O)cc5C)cc34)ccc21` [Example 395, 3,3-diethyl-6-((7-((2-methyl-4-(methylsulfonyl)phenyl)amino)-2,6-naphthyridin-1-yl)ethynyl)indolin-2-one], the IC50 in assay [1] (setting [10]) is greater than 250 nM; in assay [2] (setting [11]), less than 25 nM; in assay [3] (setting [14]) it was greater than 250 nM; in assay [4] (setting [13]), greater than 250 nM.

As to `Nc1ncccc1C#Cc1nccc2cnc(Nc3ccc(S(=O)(=O)C4CCC4)cc3)cc12` [Example 398, 5-((2-aminopyridin-3-yl)ethynyl)-N-(4-(cyclobutylsulfonyl)phenyl)-2,6-naphthyridin-3-amine], the IC50 was greater than 250 nM in assay [1] (setting [10]), 25 to 250 nM in assay [2] (setting [15]), greater than 250 nM in assay [3] (setting [14]) and greater than 250 nM in assay [4] (setting [13]).

With `Cc1cc(Nc2cc3c(C#Cc4ccc5c(c4)NC(=O)C5(C)C)nccc3cn2)ccc1S(C)(=O)=O` [Example 406, 3,3-dimethyl-6-((7-((3-methyl-4-(methylsulfonyl)phenyl)amino)-2,6-naphthyridin-1-yl)ethynyl)indolin-2-one], the IC50 in assay [1] (setting [10]) was greater than 250 nM; in assay [2] (setting [11]) it was less than 25 nM; in assay [3] (setting [14]), greater than 250 nM; in assay [4] (setting [13]) it was greater than 250 nM.

Take `CC(C)NS(=O)(=O)c1ccc(Nc2cc3c(C#Cc4cccnc4N)nccc3cn2)cc1` [Example 421, 4-((5-((2-aminopyridin-3-yl)ethynyl)-2,6-naphthyridin-3-yl)amino)-N-isopropylbenzenesulfonamide]: the IC50 is greater than 250 nM in assay [1] (setting [10]), less than 25 nM in assay [2] (setting [11]), greater than 250 nM in assay [3] (setting [14]) and greater than 250 nM in assay [4] (setting [13]).

Regarding `CC1(C)C(=O)Nc2cc(C#Cc3nccc4cnc(Nc5ccc(S(C)(=O)=O)cc5)cc34)cnc21` [Example 436, 3,3-dimethyl-6-((7-((4-(methylsulfonyl)phenyl)amino)-2,6-naphthyridin-1-yl)ethynyl)-1,3-dihydro-2H-pyrrolo[3,2-b]pyridin-2-one], the IC50 in assay [1] (setting [10]) was greater than 250 nM; in assay [2] (setting [11]), less than 25 nM; in assay [3] (setting [14]), greater than 250 nM; in assay [4] (setting [13]), greater than 250 nM.

`CN1CCC(NS(=O)(=O)c2ccc(Nc3cc4c(C#Cc5ccc6c(c5)NC(=O)C6(C)C)nccc4cn3)cc2)CC1` [Example 441, 4-((5-((3,3-dimethyl-2-oxoindolin-6-yl)ethynyl)-2,6-naphthyridin-3-yl)amino)-N-(1-methylpiperidin-4-yl)benzenesulfonamide]: the IC50 in assay [1] (x = IC50 <25 nM, read-out: CDK4/CCND IC50 (<25 nM)) is less than 25 nM; in assay [2] (setting [11]), less than 25 nM; in assay [3] (x = IC50 <25 nM, read-out: CDK1/CCNB IC50 (<25 nM)) it was less than 25 nM; in assay [4] (x = IC50 25-250 nM, read-out: CDK6/CCND IC50 (25-250 nM)), 25 to 250 nM.

For `CC1(C)C(=O)Nc2cc(C#Cc3nccc4cnc(Nc5ccc(S(C)(=O)=O)cc5)cc34)c(F)cc21` [Example 446, 5-fluoro-3,3-dimethyl-6-((7-((4-(methylsulfonyl)phenyl)amino)-2,6-naphthyridin-1-yl)ethynyl)indolin-2-one], the IC50 was 25 to 250 nM in assay [1] (x = IC50 25-250 nM, read-out: CDK4/CCND IC50 (25-250 nM)); less than 25 nM in assay [2] (setting [11]); 25 to 250 nM in assay [3] (setting [12]); greater than 250 nM in assay [4] (setting [13]).

For the compound `CNS(=O)(=O)c1ccc(Nc2cc3c(C#Cc4cccnc4N)nccc3cn2)c(C)c1` [Example 449, 4-((5-((2-aminopyridin-3-yl)ethynyl)-2,6-naphthyridin-3-yl)amino)-N,3-dimethylbenzenesulfonamide], the IC50 was greater than 250 nM in assay [1] (setting [10]), less than 25 nM in assay [2] (setting [11]), 25 to 250 nM in assay [3] (setting [12]) and greater than 250 nM in assay [4] (setting [13]).

Turning to `Nc1ncccc1C#Cc1nccc2cnc(Nc3ccc(S(=O)(=O)Nc4nccc(N5CCOCC5)n4)cc3)cc12` [Example 464, 4-((5-((2-aminopyridin-3-yl)ethynyl)-2,6-naphthyridin-3-yl)amino)-N-(4-morpholinopyrimidin-2-yl)benzenesulfonamide], the IC50 in assay [1] (setting [10]) is greater than 250 nM; in assay [2] (setting [11]), less than 25 nM; in assay [3] (setting [14]), greater than 250 nM; in assay [4] (setting [13]), greater than 250 nM.

As to `Nc1ncccc1C#Cc1nccc2cnc(Nc3cnc(O)c(N4CCNCC4)c3)cc12` [Example 465, 5-((5-((2-aminopyridin-3-yl)ethynyl)-2,6-naphthyridin-3-yl)amino)-3-(piperazin-1-yl)pyridin-2-ol], the IC50 was greater than 250 nM in assay [1] (setting [10]), 25 to 250 nM in assay [2] (setting [15]), greater than 250 nM in assay [3] (setting [14]) and greater than 250 nM in assay [4] (setting [13]).
